# Source: US20240327364A1, “THERAPEUTIC TARGETING OF GPR68 TO INDUCE FERROPTOSIS” (University Of Maryland, Baltimore, priority 2023, published 2024)
# Columns and labels:
# [1] = test system: Panc02; assay: Liperfluo lipid peroxidation; type: cell-based, mouse; details: OGM2 and ionizing radiation
# Description: Where appropriate, ANOVA, or student's T-test were conducted in PRISM. Chi squared T(X) was used for Liperfluo analysis. A value T(X)>4 implies that the two distributions are different with a p<0.01 (99% confidence). For drug interaction and therapeutic interaction, the coefficient of drug interaction (CDI) was calculated as follows: CDI=AB/(A×B). According to the impact of each group, AB is the value of combined treatment and A or B is the value of the single agent group to control group.
# Radiation, like OGM2, induces lipid peroxidation in addition to DNA damage. OGM was tested for its ability to sensitize lung and pancreatic cancers to radiation induced lipid peroxidation and ferroptosis. Cells were incubated at 37° C. in 5% CO2 in […] DMEM with DMSO, OGM2, or Erastin for 3 days. Then 2.5 μM Liperfluo in 3 ml fresh media was added and cells were incubated at 37° C. in 5% CO2 for 1 hour. Cells were then trypsinized, pelleted, and resuspended in cell sorting media (1% BSA and 1 mM EDTA in PBS pH 7.4). A BD LSR II was used to record Ten thousand events and the data processed with FlowJo v10.8. […] All treatments were highly significant with Chi-squared >4 indicating a p<0.01.
# [2] = molecular target: GPR68 (Homo sapiens, UniProt Q15743); assay: Flow-induced calcium response, Chem1-GPR68 cells; type: cell-based; set-up: host or cells: Chem-1 cells (Chem1-OGR1); details: 5-minute pre-incubation with 3 μM OGM2
# GPR68, sequence (Q15743 whole entry): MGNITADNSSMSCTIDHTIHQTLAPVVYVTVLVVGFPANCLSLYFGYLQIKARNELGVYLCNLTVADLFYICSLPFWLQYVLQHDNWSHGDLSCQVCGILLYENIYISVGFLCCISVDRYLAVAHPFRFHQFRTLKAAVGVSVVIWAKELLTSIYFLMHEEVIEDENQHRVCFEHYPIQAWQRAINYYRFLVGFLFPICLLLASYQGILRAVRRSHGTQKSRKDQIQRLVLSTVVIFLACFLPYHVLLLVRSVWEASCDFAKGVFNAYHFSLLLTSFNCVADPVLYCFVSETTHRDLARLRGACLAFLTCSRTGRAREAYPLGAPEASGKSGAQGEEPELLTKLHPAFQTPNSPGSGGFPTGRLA
# Description: Chem1-GPR68 cells were stained with calcium indicator dye, and then exposed to 34 dyn/cm^2 (3.4 Pa) of force, generating a robust calcium response that could be inhibited by a 5-minute pre-incubation with 3 μM OGM2. […] Of note, one example of a method to enhance expression of ATF4 gene is using CRISPRa with sgRNA targeting the ATF4 gene, including with the s RNAs with the following sequences: […]
# [3] = molecular target: T1, PAK7 (Homo sapiens, UniProt Q9P286); assay: KinomeScan; type: binding; details: read-out: % Control
# T1 construct: purchased DiscoveRx
# [4] = molecular target: T2, MST4 (Homo sapiens, UniProt Q9P289); assay: KinomeScan; type: binding; details: read-out: % Control
# T2 construct: purchased DiscoveRx
# [5] = molecular target: T3, PIP5K2C (Homo sapiens, UniProt Q8TBX8); assay: KinomeScan; type: binding; details: read-out: % Control
# T3 construct: purchased DiscoveRx (Fremont, CA)
# [6] = molecular target: T4, MST2 (Homo sapiens, UniProt Q13188); assay: KinomeScan; type: binding; details: read-out: % Control
# T4 construct: purchased DiscoveRx
# [7] = molecular target: T5, GPR54 (Homo sapiens, UniProt Q969F8); assay: GPCR Profiler; type: cell-based
# T5 construct: host or cells: Chem-1 cells with promiscuous Gα15
# T5 sequence (Q969F8 whole entry, species assumed): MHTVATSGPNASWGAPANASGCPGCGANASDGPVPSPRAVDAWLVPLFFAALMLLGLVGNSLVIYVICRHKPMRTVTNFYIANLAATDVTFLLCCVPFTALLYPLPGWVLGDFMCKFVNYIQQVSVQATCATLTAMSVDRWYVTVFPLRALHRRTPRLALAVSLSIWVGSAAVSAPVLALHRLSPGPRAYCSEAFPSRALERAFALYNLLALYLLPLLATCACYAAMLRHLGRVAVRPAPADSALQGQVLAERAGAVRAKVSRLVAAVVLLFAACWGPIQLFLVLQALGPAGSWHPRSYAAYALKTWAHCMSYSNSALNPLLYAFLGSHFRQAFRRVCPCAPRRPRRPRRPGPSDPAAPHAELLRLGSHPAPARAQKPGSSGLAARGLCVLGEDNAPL
# [8] = molecular target: T6, NEK4 (Homo sapiens, UniProt P51957); assay: KinomeScan; type: binding; details: read-out: % Control
# T6 construct: purchased DiscoveRx
# [9] = molecular target: T7, YSK1 (Homo sapiens, UniProt O00506); assay: KinomeScan; type: binding; details: read-out: % Control
# T7 construct: purchased DiscoveRx
# [10] = molecular target: T8, CCR8 (Homo sapiens, UniProt P51685); assay: GPCR Profiler; type: cell-based
# T8 construct: host or cells: Chem-1 cells with Gα15
# T8 sequence (P51685 whole entry, species assumed): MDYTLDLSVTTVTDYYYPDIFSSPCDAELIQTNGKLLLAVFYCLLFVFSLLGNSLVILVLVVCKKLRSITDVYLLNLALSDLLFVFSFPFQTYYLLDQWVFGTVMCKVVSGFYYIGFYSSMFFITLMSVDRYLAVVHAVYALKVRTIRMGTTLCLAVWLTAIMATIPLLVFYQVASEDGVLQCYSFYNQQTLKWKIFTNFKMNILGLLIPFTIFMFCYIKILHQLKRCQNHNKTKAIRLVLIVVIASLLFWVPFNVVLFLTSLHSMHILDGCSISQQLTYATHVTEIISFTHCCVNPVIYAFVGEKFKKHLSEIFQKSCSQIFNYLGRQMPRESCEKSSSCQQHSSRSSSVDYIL
# [11] = molecular target: T9, NEK1 (Homo sapiens, UniProt Q96PY6); assay: KinomeScan; type: binding; details: read-out: % Control
# T9 construct: purchased DiscoveRx
# [12] = molecular target: T10, MAK (Homo sapiens, UniProt P20794); assay: KinomeScan; type: binding; details: read-out: % Control
# T10 construct: purchased DiscoveRx
# [13] = molecular target: T11, ABL1-nonphosphorylated (Homo sapiens, UniProt P00519); assay: KinomeScan; type: binding; details: read-out: % Control
# T11 construct: purchased DiscoveRx
# T11 sequence (P00519 242-493 limits assumed): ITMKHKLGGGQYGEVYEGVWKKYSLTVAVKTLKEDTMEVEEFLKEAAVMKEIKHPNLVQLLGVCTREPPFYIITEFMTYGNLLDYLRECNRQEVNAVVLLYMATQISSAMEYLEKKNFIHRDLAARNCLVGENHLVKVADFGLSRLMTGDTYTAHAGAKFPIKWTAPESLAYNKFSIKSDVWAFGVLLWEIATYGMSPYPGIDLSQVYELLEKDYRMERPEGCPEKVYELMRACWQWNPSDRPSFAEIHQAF
# [14] = molecular target: T12, FYN (Homo sapiens, UniProt P06241); assay: KinomeScan; type: binding; details: read-out: % Control
# T12 construct: purchased DiscoveRx (Fremont, CA)
# [15] = molecular target: T13, p38-beta (Homo sapiens, UniProt Q15759); assay: KinomeScan; type: binding; details: read-out: % Control
# T13 construct: purchased DiscoveRx
# T13 sequence (Q15759 whole entry): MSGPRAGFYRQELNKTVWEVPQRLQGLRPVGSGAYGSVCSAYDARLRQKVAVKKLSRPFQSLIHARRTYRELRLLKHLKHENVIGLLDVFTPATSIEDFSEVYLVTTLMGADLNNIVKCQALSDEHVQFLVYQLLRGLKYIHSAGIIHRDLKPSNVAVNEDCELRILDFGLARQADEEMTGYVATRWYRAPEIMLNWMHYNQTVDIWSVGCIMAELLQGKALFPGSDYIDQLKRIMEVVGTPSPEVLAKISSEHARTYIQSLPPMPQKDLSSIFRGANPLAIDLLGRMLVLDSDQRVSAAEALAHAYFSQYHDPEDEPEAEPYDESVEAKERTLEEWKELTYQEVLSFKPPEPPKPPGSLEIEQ
# [16] = molecular target: CTK (Homo sapiens, UniProt P42679); assay: KinomeScan; type: binding; details: read-out: % Control
# [17] = molecular target: T14, KIT (Homo sapiens, UniProt P10721); assay: KinomeScan; type: binding; details: read-out: % Control
# T14 construct: purchased DiscoveRx
# [18] = molecular target: T15, BMPR1A (Homo sapiens, UniProt P36894); assay: KinomeScan; type: binding; details: read-out: % Control
# T15 construct: purchased DiscoveRx (Fremont, CA)
# [19] = molecular target: T16, ACVR2A (Homo sapiens, UniProt P27037); assay: KinomeScan; type: binding; details: read-out: % Control
# T16 construct: purchased DiscoveRx
# T16 sequence (P27037 192-485 limits assumed): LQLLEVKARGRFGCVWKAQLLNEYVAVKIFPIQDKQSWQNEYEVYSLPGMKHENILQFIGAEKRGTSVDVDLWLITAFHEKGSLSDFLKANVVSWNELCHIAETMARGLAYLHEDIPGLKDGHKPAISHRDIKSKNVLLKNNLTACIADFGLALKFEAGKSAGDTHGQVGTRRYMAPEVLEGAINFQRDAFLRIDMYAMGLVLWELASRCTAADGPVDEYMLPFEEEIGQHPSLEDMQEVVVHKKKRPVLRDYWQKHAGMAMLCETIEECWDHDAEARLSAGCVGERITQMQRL
# [20] = molecular target: T17, PCTK1 (Homo sapiens, UniProt Q00536); assay: KinomeScan; type: binding; details: read-out: % Control
# T17 construct: purchased DiscoveRx
# [21] = molecular target: T18, EPHA2 (Homo sapiens, UniProt P29317); assay: KinomeScan; type: binding; details: read-out: % Control
# T18 construct: purchased DiscoveRx (Fremont, CA)
# T18 sequence (P29317 24-976): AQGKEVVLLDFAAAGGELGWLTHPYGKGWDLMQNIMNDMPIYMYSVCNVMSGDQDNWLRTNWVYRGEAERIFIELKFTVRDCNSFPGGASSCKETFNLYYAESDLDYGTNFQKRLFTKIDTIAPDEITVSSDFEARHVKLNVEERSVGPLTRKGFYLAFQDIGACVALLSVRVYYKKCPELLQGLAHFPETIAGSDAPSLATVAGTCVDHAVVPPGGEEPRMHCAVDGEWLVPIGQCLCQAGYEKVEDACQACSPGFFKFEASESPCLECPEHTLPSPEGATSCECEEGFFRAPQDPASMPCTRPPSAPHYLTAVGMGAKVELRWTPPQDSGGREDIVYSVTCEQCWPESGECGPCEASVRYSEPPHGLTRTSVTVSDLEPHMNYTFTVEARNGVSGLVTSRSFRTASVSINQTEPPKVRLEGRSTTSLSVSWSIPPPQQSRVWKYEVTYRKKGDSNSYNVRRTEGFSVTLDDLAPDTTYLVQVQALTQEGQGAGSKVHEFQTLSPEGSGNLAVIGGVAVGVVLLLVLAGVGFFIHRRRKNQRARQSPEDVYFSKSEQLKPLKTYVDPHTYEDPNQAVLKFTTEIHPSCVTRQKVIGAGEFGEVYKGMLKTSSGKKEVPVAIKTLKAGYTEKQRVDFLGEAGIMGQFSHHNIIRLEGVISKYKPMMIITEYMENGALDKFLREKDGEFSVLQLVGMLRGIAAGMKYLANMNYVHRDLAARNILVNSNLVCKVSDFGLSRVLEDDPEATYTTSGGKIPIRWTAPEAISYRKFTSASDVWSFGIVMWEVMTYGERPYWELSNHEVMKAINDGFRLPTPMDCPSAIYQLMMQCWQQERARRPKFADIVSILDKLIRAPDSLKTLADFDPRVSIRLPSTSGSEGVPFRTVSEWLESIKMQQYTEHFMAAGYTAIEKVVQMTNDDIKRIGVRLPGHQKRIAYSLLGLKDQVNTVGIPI
# [22] = molecular target: T19, FER (Homo sapiens, UniProt P16591); assay: KinomeScan; type: binding; details: read-out: % Control
# T19 construct: purchased DiscoveRx (Fremont, CA)
# T19 sequence (P16591 whole entry): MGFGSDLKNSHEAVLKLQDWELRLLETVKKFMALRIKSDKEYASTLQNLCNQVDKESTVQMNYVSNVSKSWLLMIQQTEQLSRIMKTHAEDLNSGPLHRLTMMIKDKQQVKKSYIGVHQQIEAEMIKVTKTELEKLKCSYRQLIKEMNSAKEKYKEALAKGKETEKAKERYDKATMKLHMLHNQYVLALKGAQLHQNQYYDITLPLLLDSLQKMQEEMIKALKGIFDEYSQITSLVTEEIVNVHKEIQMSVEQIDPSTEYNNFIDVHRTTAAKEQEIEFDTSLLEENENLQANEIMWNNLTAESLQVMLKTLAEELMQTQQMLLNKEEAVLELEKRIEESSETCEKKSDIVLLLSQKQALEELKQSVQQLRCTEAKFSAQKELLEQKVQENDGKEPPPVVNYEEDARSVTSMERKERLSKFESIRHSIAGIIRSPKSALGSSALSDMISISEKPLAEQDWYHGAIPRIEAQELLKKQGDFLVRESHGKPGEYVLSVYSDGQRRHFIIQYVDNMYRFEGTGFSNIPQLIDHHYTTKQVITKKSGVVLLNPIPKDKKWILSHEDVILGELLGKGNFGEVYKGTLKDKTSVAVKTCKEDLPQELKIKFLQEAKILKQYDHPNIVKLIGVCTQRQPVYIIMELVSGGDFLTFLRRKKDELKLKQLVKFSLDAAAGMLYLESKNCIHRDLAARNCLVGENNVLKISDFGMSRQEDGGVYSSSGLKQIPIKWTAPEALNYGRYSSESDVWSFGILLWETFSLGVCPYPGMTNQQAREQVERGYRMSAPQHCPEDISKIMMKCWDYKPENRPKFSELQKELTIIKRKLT
# [23] = molecular target: T20, D2 (Homo sapiens, UniProt P14416); assay: GPCR Profiler; type: cell-based
# T20 construct: host or cells: Chem-1 cells with Gα15
# T20 sequence (P14416 whole entry): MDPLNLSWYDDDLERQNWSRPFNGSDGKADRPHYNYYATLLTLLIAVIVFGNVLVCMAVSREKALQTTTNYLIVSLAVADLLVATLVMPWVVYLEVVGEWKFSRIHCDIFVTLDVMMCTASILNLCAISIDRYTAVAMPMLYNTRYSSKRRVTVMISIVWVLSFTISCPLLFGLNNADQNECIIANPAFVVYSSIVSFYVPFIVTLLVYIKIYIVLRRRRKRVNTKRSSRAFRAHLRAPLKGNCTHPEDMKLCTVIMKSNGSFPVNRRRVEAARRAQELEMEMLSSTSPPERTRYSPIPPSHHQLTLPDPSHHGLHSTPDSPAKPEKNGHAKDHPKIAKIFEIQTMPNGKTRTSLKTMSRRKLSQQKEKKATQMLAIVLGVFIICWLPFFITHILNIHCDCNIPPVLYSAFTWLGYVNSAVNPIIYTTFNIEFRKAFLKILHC
# [24] = molecular target: T21, HUNK (Homo sapiens, UniProt P57058); assay: KinomeScan; type: binding; details: read-out: % Control
# T21 construct: purchased DiscoveRx (Fremont, CA)
# T21 sequence (P57058 whole entry): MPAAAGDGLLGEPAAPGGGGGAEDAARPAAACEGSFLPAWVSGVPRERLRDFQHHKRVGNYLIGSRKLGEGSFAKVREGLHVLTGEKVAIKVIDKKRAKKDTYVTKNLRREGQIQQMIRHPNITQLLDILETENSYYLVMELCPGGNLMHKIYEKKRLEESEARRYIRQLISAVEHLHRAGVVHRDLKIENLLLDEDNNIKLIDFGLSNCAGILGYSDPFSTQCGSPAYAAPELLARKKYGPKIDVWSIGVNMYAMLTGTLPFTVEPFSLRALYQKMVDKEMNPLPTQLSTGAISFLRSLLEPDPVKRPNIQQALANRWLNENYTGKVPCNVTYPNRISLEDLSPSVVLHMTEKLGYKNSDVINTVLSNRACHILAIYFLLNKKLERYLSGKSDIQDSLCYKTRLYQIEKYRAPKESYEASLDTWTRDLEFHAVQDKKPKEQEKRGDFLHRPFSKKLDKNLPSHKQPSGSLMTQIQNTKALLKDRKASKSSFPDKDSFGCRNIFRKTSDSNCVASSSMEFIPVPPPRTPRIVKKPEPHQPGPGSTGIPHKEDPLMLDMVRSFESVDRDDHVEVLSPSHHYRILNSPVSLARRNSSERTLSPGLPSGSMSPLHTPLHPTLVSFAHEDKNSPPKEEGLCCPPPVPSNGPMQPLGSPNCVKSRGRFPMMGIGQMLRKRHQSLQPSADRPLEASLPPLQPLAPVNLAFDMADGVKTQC
# [25] = molecular target: T22, MTOR (Homo sapiens, UniProt P42345); assay: KinomeScan; type: binding; details: read-out: % Control
# T22 construct: purchased DiscoveRx
smiles,measurement,setting,value
CCc1ccc2c(c1)C1(NN=C(c3ccccc3)S1)C(=O)N2 (stereo not shown) [OGM2],"CDI, lipid peroxidation",[1],< 0.232
same,calcium response to 34 dyn/cm^2 flow,[2],inhibited
"CCc1ccc2c(c1)C1(NN=C(c3cccc4ccccc34)S1)C(=O)N2 (stereo not shown) [OGM1, 5-ethyl-5′-naphthalen-1-ylspiro[1H-indole-3,2′-3H-1,3,4-thiadiazole]-2-one]",remaining binding at 10 µM,[3],62%
same,remaining binding at 10 µM,[4],81%
same,remaining binding at 10 µM,[5],100%
same,remaining binding at 10 µM,[6],69%
same,Antagonism,[7]; 10 uM,−5.8
same,Agonism,[7]; 12.5 uM,−0.6
same,remaining binding at 10 µM,[8],100%
same,remaining binding at 10 µM,[9],80%
same,Antagonism,[10]; 10 uM,−2.5
same,Agonism,[10]; 12.5 uM,2
same,remaining binding at 10 µM,[11],83%
same,remaining binding at 10 µM,[12],90%
same,remaining binding at 10 µM,[13],100%
same,remaining binding at 10 µM,[14],100%
same,remaining binding at 10 µM,[15],100%
same,remaining binding at 10 µM,[16],100%
same,remaining binding at 10 µM,[17],79%
same,remaining binding at 10 µM,[18],100%
same,remaining binding at 10 µM,[19],100%
same,remaining binding at 10 µM,[20],77%
same,remaining binding at 10 µM,[21],100%
same,remaining binding at 10 µM,[22],100%
same,Antagonism,[23]; 10 uM,11.4
same,Agonism,[23]; 12.5 uM,−0.5
same,remaining binding at 10 µM,[24],83%
same,remaining binding at 10 µM,[25],86%
